Measured values published in PubChem BioAssay AID687022 (Broad Institute, 2013).
The source made the active and inactive calls.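 The calls were made as follows: active = Fitted curve of melting temperature shift crosses the 1.0 threshold at or below the sample's highest valid tested concentration; inconclusive = Flat fit with activity 30 to 70, or invalid fit; inactive = Opposite direction, flat within 30, or no crossing.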

Target: Fibroblast growth factor 22 (Homo sapiens) (UniProt Q9HCT0)
Test: binders of human FGF22 protein, dose response, FGF22 synaptogenesis inhibitor project, biophysical, thermal shift, cherry-pick (AID 687022)
Details: recombinant FGF22 thermal shift, SYPRO orange melting

Fibroblast growth factor 22 (Homo sapiens), sequence (Q9HCT0 whole entry, looked up): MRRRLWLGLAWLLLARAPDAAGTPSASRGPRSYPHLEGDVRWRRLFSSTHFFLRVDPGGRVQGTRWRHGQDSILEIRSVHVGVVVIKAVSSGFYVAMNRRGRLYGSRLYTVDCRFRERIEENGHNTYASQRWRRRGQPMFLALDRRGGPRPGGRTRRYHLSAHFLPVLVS

| Compound | AbsAC1 (concentration giving Tm-shift threshold 1.0) |
| --- | --- |
| O=C(O)c1ccc(Cl)c(S(=O)(=O)Nc2ccc(S(=O)(=O)N3CCCC3)cc2)c1 | 14.1 µM |
| O=[N+]([O-])c1ccc2nc(NS(=O)(=O)c3ccccc3[N+](=O)[O-])sc2c1 | 6.33 µM |
| C[C@@H]1CN([C@@H](C)CO)C(=O)c2cc(NS(=O)(=O)c3ccc(Cl)cc3)ccc2O[C@@H]1CN(C)S(=O)(=O)c1ccc(F)cc1 | 21.9 µM |
| NC(=O)c1ccsc1NC(=O)COC(=O)CCCOc1ccccc1 | 5.37 µM |
| O=C(Nc1ccc(F)cc1)N[C@@H]1CC[C@H](CCn2cc(-c3ccc(F)cc3)nn2)O[C@H]1CO | 13 µM |
| CC(=O)Nc1ccc(S(=O)(=O)Nc2nc3ccccc3nc2Nc2cccc(S(N)(=O)=O)c2)cc1 | 12.7 µM |
| O=C(Nc1ccc(Cl)cc1)N[C@@H]1CC[C@@H](CCNS(=O)(=O)c2ccccc2F)O[C@H]1CO | 5.88 µM |
| COc1cccc(S(=O)(=O)N2C[C@@H](O)COC[C@@H]3O[C@@H](CC(=O)Nc4ccccc4)CC[C@H]32)c1 | 3.38 µM |
| CC(=O)c1c(C)nc(-c2ccc(OCC(=O)Nc3ccc(F)cc3)cc2)n1O | 16.3 µM |
| O=C(Nc1ccc(S(=O)(=O)N2CCOCC2)cc1)c1ccc(F)cc1 | 12.7 µM |
| COc1cccc(NC(=O)CN(C)C(=O)c2ccc(N3CCCCC3)c([N+](=O)[O-])c2)c1 | 11.4 µM |
| CC(=O)c1ccc(OCCCC(=O)Nc2ccc(S(=O)(=O)N3CCOCC3)cc2)cc1 | > 38 µM (inactive) |
| CC(=O)Nc1ccc(/C(C)=N/Nc2nc(Nc3ccccc3)nc(N3CCOCC3)n2)cc1 | 7.91 µM |
| CN1C(=O)c2cc(NC(=O)c3cccc(F)c3)ccc2OC[C@H]2O[C@@H](CC(=O)N3CCc4ccccc4C3)CC[C@H]21 | 18.4 µM |
| CO[C@H](CN(C)S(=O)(=O)c1cccc(Cl)c1)[C@H](C)CN([C@H](C)CO)S(=O)(=O)c1cccc(Cl)c1 | 14.1 µM |
| O=C(C[C@H]1CC[C@H]2[C@@H](COC[C@H](O)CN2Cc2ccccc2)O1)NCCc1ccccc1 | > 38 µM (inactive) |
| COc1ccc(NC(=O)c2[nH]ncc2[N+](=O)[O-])cc1 | 17.9 µM |
| O=C(CNC(=O)c1ccc(S(=O)(=O)N2CCCC2)cc1)N/N=C/c1ccc(F)cc1 | 16.5 µM |
| C/C(=N\NC(=O)COc1ccc(C)cc1C(C)C)c1cc2ccccc2o1 | 20.9 µM |
| C[C@@H]1CN([C@@H](C)CO)S(=O)(=O)c2ccc(-c3ccc(F)cc3)cc2O[C@@H]1CN(C)C(=O)Nc1ccccc1F | > 38 µM (inactive) |
| O=[N+]([O-])c1cccc(S(=O)(=O)Nc2ccc(-c3ccc(N4CCCC4)nn3)cc2)c1 | 19.1 µM |
| CCOc1ccc(N2C(=O)C(CC(=O)Nc3ccccc3)N(Cc3ccccn3)C2=S)cc1 (stereo not drawn) | 4.24 µM |
| S=C(Nc1ccc(N2CCOCC2)cc1)Nc1ccc2snnc2c1 | 9.95 µM |
